Drawing on patent US20100074846A1, “Campylobacter Vaccines and Methods of use” (priority 2006, published 2010), this text covers antibiotic sensitivity/resistance for 2 compounds.

The assay relates to Campylobacter species pig isolates. Nature of the assay: nalidixic acid and cephalothin antibiotic sensitivity and resistance testing of pig isolates. It is filed as cell-based, Campylobacter coli.

Take `CC(=O)OCC1=C(C(=O)O)N2C(=O)[C@@H](NC(=O)Cc3cccs3)[C@H]2SC1` [Cph, cephalothin]: the antibiotic sensitivity/resistance entry by setting is: (pig isolate 1-Group B) “S”; (pig isolate 2-Group B) “R”; (pig isolate 3-Group A) “R”; (pig isolate 3-Group B) “R”; (pig isolate 4-Group A) “S”; (pig isolate 6-Group A) “R”. The antibiotic sensitivity/resistance entry (pig isolate 7-Group A) is “R”.
Turning to `CCn1cc(C(=O)O)c(=O)c2ccc(C)nc21` [NA, nalidixic acid], the antibiotic sensitivity/resistance entry is “S” (pig isolate 1-Group B); “S” (pig isolate 2-Group B); “R” (pig isolate 3-Group A); “S” (pig isolate 3-Group B); “S” (pig isolate 4-Group A); “S” (pig isolate 6-Group A). Moreover, the antibiotic sensitivity/resistance result (pig isolate 7-Group A) is reported as “S”.
